Test system: IgG antibodies
Assay: Serum IgG antibodies binding glucan
Settings: pooled serum from 10 human donors
Method: Serum from 10 unimmunized normal healthy donors was pooled
Pooled serum from 10 human donors, had high levels of IgG antibodies binding β-1,6-glucan, in contrast to low levels of IgG binding β-1,3-glucan. To test how prevalent is the anti-β-b 1,6-glucan antibodies in different donors, we collected sera from 12 individuals. The sera were used to opsonize β-1,6-glucan- or β-1,3-glucan-coated beads, and the beads were incubated with human neutrophils. Eleven of the twelve sera had the high response that the pool did, mediating efficient engulfment and ROS production (FIG. 2A, a representative serum of the high responders). One serum mediated a less efficient engulfment and ROS production (FIG. 2B, low responder).

Q: β-1,3-glucan was tested. Which “levels of IgG antibodies binding the glucan” value did it give?
A: low levels

Q: β-1,6-glucan was tested. Which “levels of IgG antibodies binding the glucan” value did it give?
A: high levels

— patent US9005903B2, “Immunomodulating compositions and methods of use thereof” (ImmuneXcite, Inc., priority 2008, dated 2015)
